Here are results for one compound from patent US5506213A, “Adminstration of 2'-halo-2'-deoxy adenosine to treat inflammatory bowel disease” (priority 1994, dated 1996).

One test concerns autoantibody production. Nature of the test: 2-Chlorodeoxyadenosine in autohemolytic anemia patients. It counts as in vivo, human. An excerpt: Thus, the present invention provides a method for decreasing the number of circulating blood monocytes.
In test [1] the test system is Peripheral blood lymphocytes. Briefly: Direct comparative cytotoxicity assay (Table II), peripheral blood lymphocytes. Format: cell-based, human. Conditions: Homo sapiens, Lymphocyte, 120 h, read-out: ID50: concentration that produced 50 percent reduction in all numbers after five days. An excerpt:
(§1) The two compounds, CdA and CAFdA, were also compared for in vitro activity against another group of human cell lines in a direct comparative assay.
(§2) ^1 Concentration that produced 50 percent reduction in all numbers

In a further test the test system is monocytes. Briefly: Direct comparative cytotoxicity assay (Table II), monocytes. Format: cell-based, human. The conditions noted are these: Homo sapiens, Monocyte, 120 h, read-out: ID50: concentration that produced 50 percent reduction in all numbers after five days.
Source text: as §1, §2

For the compound `Nc1nc(Cl)nc2c1ncn2[C@H]1C[C@H](O)[C@@H](CO)O1` [CdA, 2-chloro-9,1'-beta-D-2'-deoxyribosyladenine], in the test on autoantibody production, the autoantibody production result is “significant decrease in autoantibody production” and the hemolysis result is on record as “reduction in hemolysis”. For the same compound, in test [1], the IC50 stood at 15 nM. The IC50 in the test on monocytes came to 22 nM.
